Data on one molecule can be found in patent publication US9226897B2, “Self-assembling nanoparticles for the release of bisphosphonates in the treatment of human cancers” (Istituti Fisioterapici Ospitalieri, priority 2010, dated 2016).

Series [1] concerns OPM2. As to the kind of experiment: MTT proliferation assay, OPM2 multiple myeloma cells. In kind it is cell-based. The settings on record: Homo sapiens, OPM-2, 72 h, read-out: IC50 (50% inhibitory concentration), growth inhibition. As to the method: (§1) Human melanoma cells (M14) and doxorubicin resistant cells (M14+) were provided by Prof. G. Arancia form the National Institute of Health of Rome. […] Proliferation of human cancer cell lines was performed in the presence of increasing concentrations of different drugs by MTT assay as previously described by Caraglia et al. (Oncogene 2004).
(§2) It was studied the effect of increasing concentrations of ZOL encapsulated in pre- and post-PLCaP NPs on growth inhibition of different human cancer cell lines, by MTT assay. In Table 2, the IC50 (50% inhibitory concentration) values of ZOL, free or encapsulated in pre- or post-PLCaP NPs, in the different cell lines analysed after 72 h, are reported. […] Moreover, when using ZOL-encapsulating NPs, we found a potentiation factor (PF)>1.0 in all tested cell lines, if compared with the free ZOL. […] In particular, on MCF7, pre-PLCaPZ NPs caused an about 12-fold potentiation of ZOL-induced cytotoxicity, while a lower effect (about 8-fold) was found with post-PLCaP NPs.
Background: Tetrazolium assays rely on reduction of a dye to a coloured formazan, in cell work by metabolically active cells.

Series [2] concerns MIA PaCa. As to the kind of experiment: MTT proliferation assay, MIA PaCa pancreas cancer cells. It counts as cell-based. The following applies: Homo sapiens, MIA PaCa-2, 72 h, read-out: IC50 (50% inhibitory concentration), growth inhibition. As to the method: as §1, §2
The test system of series [3] is DOX. Kind of series: MTT proliferation assay, DOX multiple myeloma cells. It counts as cell-based. The settings on record: Homo sapiens, Multiple myeloma cell, 72 h, read-out: IC50 (50% inhibitory concentration), growth inhibition. As to the method: as §1, §2
For series [4], the system named is MDA-MB468. Kind of series: MTT proliferation assay, MDA-MB468 breast cancer cells. It counts as cell-based. The following applies: Homo sapiens, MDA-MB-468, 72 h, read-out: IC50 (50% inhibitory concentration), growth inhibition. As to the method: as §1, §2
Series [5] concerns KB. Kind of series: MTT proliferation assay, KB head/neck cancer cells. It counts as cell-based. The settings on record: Homo sapiens, 72 h, read-out: IC50 (50% inhibitory concentration), growth inhibition. As to the method:
as §1, §2

For series [6], the system named is H1355. As to the kind of experiment: MTT proliferation assay, H1355 lung cancer cells. In kind it is cell-based. The settings on record: Homo sapiens, NCI-H1355, 72 h, read-out: IC50 (50% inhibitory concentration), growth inhibition. As to the method: as §1, §2
The subject of series [7] is PC-3 cells. Kind of series: In vivo antitumoral activity on prostate cancer, PC-3 xenograft in nude mice. More on the design: species or system CD-1 nude (nu/nu) mice. The settings on record: PC-3 tumors in nude mice, 20 μg ZOL i.v. three times a week for three weeks.
Protocol: CD-1 nude (nu/nu) mice, 6-8 weeks old were purchased from Charles River Laboratories (Milano, Italy).
Mice have been acclimated for one week before to be injected with tumor cells. Mice were injected intramuscularly with tumor cells at 3×10^6 cells/mouse in 200 μl of PBS. Six days after, a tumor mass of about 0.3 cm^3 in diameter was evident, mice were randomized in four groups. Six mice/group were treated with ZOL free or NP containing ZOL for 3 consecutive weeks. Tumor mass was calculated three times a week from caliper measurements by using the formula π/6 AB, where A is the major diameter and B is the minor diameter, corresponding to tumor mass (Sommer K. et al. International Journal of Oncology 2001). Toxicity was evaluating by measuring the body weight two times a week. Student's t test was used for statistical comparison of differences.
As control, a group of mice was treated with NP not containing ZOL, to evaluate the potential antitumoral effects. Mice were treated three times a week for three consecutive weeks. Antitumor efficacy of treatments was assessed by the following end-points: a) percent tumor weight inhibition (TWI %), calculated as [1-(mean tumor weight of treated mice/mean tumor weight of controls)]×100; b) tumor growth delay, evaluated as T−C, where T and C are the median times for treated (T) and untreated tumors (C), respectively, to achieve equivalent size.
In series [8] the test system is PC3. Kind of series: MTT proliferation assay, PC3 prostate cancer cells. It counts as cell-based. The settings on record: Homo sapiens, PC-3, 72 h, read-out: IC50 (50% inhibitory concentration), growth inhibition. The procedure:
as §1, §2

In series [9] the test system is Panc. As to the kind of experiment: MTT proliferation assay, Panc pancreas cancer cells. It counts as cell-based. The following applies: Homo sapiens, 72 h, read-out: IC50 (50% inhibitory concentration), growth inhibition. As to the method:
as §1, §2

In series [10] the test system is MCF7. Kind of series: MTT proliferation assay, MCF7 breast cancer cells. In kind it is cell-based. The settings on record: Homo sapiens, 72 h, read-out: IC50 (50% inhibitory concentration), growth inhibition. The procedure: as §1, §2
For series [11] the following is noted: cited from earlier work.
Series [12] concerns CG5. Kind of series: MTT proliferation assay, CG5 breast cancer cells. It counts as cell-based. The following applies: Homo sapiens, 72 h, read-out: IC50 (50% inhibitory concentration), growth inhibition. The procedure:
as §1, §2

For series [13], the system named is RPMI. As to the kind of experiment: MTT proliferation assay, RPMI multiple myeloma cells. The following applies: Homo sapiens, Multiple myeloma cell, 72 h, read-out: IC50 (50% inhibitory concentration), growth inhibition. In kind it is cell-based. The procedure:
as §1, §2

The subject of series [14] is BX-PC3. As to the kind of experiment: MTT proliferation assay, BX-PC3 pancreas cancer cells. It counts as cell-based. The following applies: Homo sapiens, BXPC-3, 72 h, read-out: IC50 (50% inhibitory concentration), growth inhibition. The procedure: as §1, §2
The test system of series [15] is DU145. Kind of series: MTT proliferation assay, DU145 prostate cancer cells. The following applies: Homo sapiens, DU-145, 72 h, read-out: IC50 (50% inhibitory concentration), growth inhibition. In kind it is cell-based. As to the method: as §1, §2
The subject of series [16] is KMS. As to the kind of experiment: MTT proliferation assay, KMS multiple myeloma cells. It counts as cell-based. The settings on record: Homo sapiens, Multiple myeloma cell, 72 h, read-out: IC50 (50% inhibitory concentration), growth inhibition. The procedure:
as §1, §2

[17] abbreviates: ZOL 4 mg intravenous over 15 min.

For the molecule `O=P(O)(O)C(O)(Cn1ccnc1)P(=O)(O)O` [free ZOL, zoledronic acid], the IC50 in series [1] was 83 µM; in series [2] it was 55 µM; in series [3], 41.9 µM; in series [4], 28.4 µM; in series [5], 22.8 µM; in [6] it was 65 µM. In addition, the IC50 in series [8] amounted to 12.5 µM; in [9] it was 32 µM; in series [10], 120 µM; in series [12], 74 µM; in series [13], 120 µM; in [14], 12.3 µM. The IC50 is 25 µM in series [15] and 30 µM in series [16]. For the same molecule, the “TWI (%), percent tumor weight inhibition” value in [7] (at the nadir of the effect) was found to be 17%. In [7] (median times to equivalent size), the “T-C (days), tumor growth delay” value is recorded as 5 days. Also, in [11] (setting [17]), the “distribution plasma half-life (t1/2)” value is on record as 15 min. The “elimination plasma half-life (t1/2β)” value in [11] (setting [17]) is recorded as 105 min. The Cmax in series [11] (ZOL 4 mg intravenous over 15 min, read-out: maximum plasma concentration (Cmax)) is about 1000 nM. In addition, the “initially administered dose retained in the skeleton” value in series [11] (in vivo) is recorded as “approximately 55%”.
